Reference: patent US20130203659A1 (priority 2006, published 2013)
Read-outs that look alike come from different tables or passages of the source. Positions of bridges follow the written chain, without caps; N, C: chain ends. Residues, ends and D or L forms follow the SMILES beside them. No end group written: not given here. branched PEG 40 kDa = branched polyethylene glycol of 40 kDa

Assays:
human GLP-1 receptor [1] = molecular target: T1, human GLP-1 receptor (Homo sapiens, UniProt P43220); test: In vitro GLP-1 receptor binding (125I-GLP-1 ligand binding assay), human receptor
T1 construct: expressed in transfected cells; host or cells: CHOK1 cells with a cAMP-regulated luciferase reporter construct
Method: Cells were sedimented at 1500 rpm for 10 minutes. The resulting pellets were homogenized in 15 mls of ice cold sucrose buffer (25 mM Tris-HCl, 0.32 M Sucrose, 0.25 g/L sodium azide, pH 7.4) with a motorized, glass fitted, Teflon homogenizer. The homogenate was centrifuged at 48,000×g at 4° C. for 10 minutes, resuspended in 25 ml assay buffer (50 mM Tris-HCl, 5 mM MgCl2, 10 mg/ml protease-free BSA, 0.1 mg/ml STI, and 0.1 mg/ml Pefabloc, pH 7.4) with a Tissue-Tearor (Biospec Products), then centrifuged again at 48,000×g for 10 minutes. The pellets were homogenized for a third time in 15 ml assay buffer using the Tissue-Tearor and again centrifuged at 48,000×g for 10 minutes. The resulting pellet was resuspended in assay buffer at a wet weight concentration of 4 mg/ml.
Binding assays were performed in 96-well U-bottom plates. […] Bound radioactivity was determined using a TopCount microplate scintillation and luminescence counter (Packard Instrument Company, PerkinElmer, Shelton, Conn.). Nonlinear regression analyses of resulting concentration curves were performed using GraphPad Prism (GraphPad Software, Inc., San Diego, Calif.).

human GLP-1 receptor [2] = molecular target: T1, human GLP-1 receptor; test: GLP-1R reporter assay (cAMP-regulated luciferase, CHOK1 cells), human receptor; assay type: cell-based
Method: (§1) A. GLP-1R Reporter Assay:
(§2) Increased cAMP levels were measured through enhanced expression of a luciferase reporter gene. […] The evening prior to assay, the cells were washed, the medium replaced with serum-free medium containing 0.5% protease-free bovine serum albumin (BSA), and then cultured overnight. […] Cell lysates were assayed for luciferase activity using the Luciferase Assay System (Promega Corporation, Madison, Wis.). Luciferase activity was measured using a Luminoskan Ascent (Thermo Electron Corporation, Marietta, Ohio). Nonlinear regression analyses of resultant compound concentration curves were performed using GraphPad Prism (GraphPad Software, Inc., San Diego, Calif.).

mouse GLP-1 receptor = molecular target: T2, mouse GLP-1 receptor (Mus musculus, UniProt O35659); test: GLP-1R reporter assay (cAMP-regulated luciferase, CHOK1 cells), mouse receptor; assay type: cell-based; details: 6 hours exposure
T2 construct: expressed in transfected cells; host or cells: CHOK1 cells with a cAMP-regulated luciferase reporter construct
T2 sequence (O35659 22-463): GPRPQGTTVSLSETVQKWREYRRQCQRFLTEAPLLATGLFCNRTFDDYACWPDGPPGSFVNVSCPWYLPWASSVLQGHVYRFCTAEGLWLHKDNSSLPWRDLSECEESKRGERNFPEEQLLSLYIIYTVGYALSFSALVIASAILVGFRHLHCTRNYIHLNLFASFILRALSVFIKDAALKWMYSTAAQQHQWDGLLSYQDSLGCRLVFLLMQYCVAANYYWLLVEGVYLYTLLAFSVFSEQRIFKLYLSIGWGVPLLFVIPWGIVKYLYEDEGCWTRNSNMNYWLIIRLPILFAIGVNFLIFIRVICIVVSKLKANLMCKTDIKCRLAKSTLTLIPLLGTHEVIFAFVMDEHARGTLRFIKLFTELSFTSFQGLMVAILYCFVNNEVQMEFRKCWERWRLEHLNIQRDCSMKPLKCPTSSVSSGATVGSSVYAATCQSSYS
Method: as §1, §2

[3] = membranes of CHOK1 cells expressing human GLP-1 receptor, 0.2 nM 125I-GLP-1
[4] = luciferase reporter, 6 hours exposure, read-out: EC50 human

T1 sequence (P43220 24-463): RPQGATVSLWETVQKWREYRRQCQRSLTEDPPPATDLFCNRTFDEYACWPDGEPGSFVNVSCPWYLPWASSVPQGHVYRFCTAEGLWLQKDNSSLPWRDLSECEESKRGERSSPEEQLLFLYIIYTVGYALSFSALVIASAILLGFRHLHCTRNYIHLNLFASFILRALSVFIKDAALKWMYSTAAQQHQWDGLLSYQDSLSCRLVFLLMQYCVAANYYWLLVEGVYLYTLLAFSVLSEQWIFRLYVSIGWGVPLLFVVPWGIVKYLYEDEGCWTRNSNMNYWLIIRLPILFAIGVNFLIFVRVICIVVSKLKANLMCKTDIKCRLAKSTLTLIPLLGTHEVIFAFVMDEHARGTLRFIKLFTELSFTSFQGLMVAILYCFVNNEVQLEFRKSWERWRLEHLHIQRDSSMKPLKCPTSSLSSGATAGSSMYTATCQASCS

| IC50 (human GLP-1 receptor [1]; [3]) | EC50 (human GLP-1 receptor [2]; [4]) | EC50 (mouse GLP-1 receptor) | Compound | also measured |
| --- | --- | --- | --- | --- |
| > 1000 nM |  |  | cgGLP-7: SEQ ID NO: 6 + 30k PEG (HGEGTFTSDVSSYLEGC(PEG 30 kDa)AAKEFIAWLVKGRG) |  |
| > 1000 nM | 12 nM |  | cgGLP-1: SEQ ID NO: 6 + 20K PEG (HGEGTFTSDVSSYLEGC(PEG 20 kDa)AAKEFIAWLVKGRG) |  |
| > 1000 nM | 0.7 nM |  | cgGLP-2: SEQ ID NO: 6 + 40k branched PEG (HGEGTFTSDVSSYLEGC(branched PEG 40 kDa)AAKEFIAWLVKGRG) |  |
|  | 0.2 nM | 0.8 nM | CC[C@H](C)[C@H](NC(=O)[C@H](Cc1ccccc1)NC(=O)[C@H](CCC(=O)O)NC(=O)[C@H](CCCCN)NC(=O)[C@H](C)NC(=O)[C@H](C)NC(=O)[C@H](CCC(N)=O)NC(=O)CNC(=O)[C@H](CCC(=O)O)NC(=O)[C@H](CC(C)C)NC(=O)[C@H](Cc1ccc(O)cc1)NC(=O)[C@H](CO)NC(=O)[C@H](CO)NC(=O)[C@@H](NC(=O)[C@H](CC(=O)O)NC(=O)[C@H](CO)NC(=O)[C@@H](NC(=O)[C@H](Cc1ccccc1)NC(=O)[C@@H](NC(=O)CNC(=O)[C@H](CCC(=O)O)NC(=O)[C@H](C)NC(=O)[C@H](Cc1c[nH]cn1)NC(=O)[C@H](C)N)[C@@H](C)O)[C@@H](C)O)C(C)C)C(=O)N[C@@H](C)C(=O)N[C@@H](Cc1c[nH]c2ccccc12)C(=O)N[C@@H](CC(C)C)C(=O)N[C@H](C(=O)N[C@@H](CCCCN)C(=O)NCC(=O)N[C@@H](CCCNC(=N)N)C(=O)O)C(C)C [A-GLP-1, A HAEGTFTSDVSSYLEGQAAKEFIAWLVKGR] | IC50 (human GLP-1 receptor [1]): 38 nM |
|  | 4 nM |  | CC[C@H](C)[C@H](NC(=O)[C@H](Cc1ccccc1)NC(=O)[C@H](CCC(=O)O)NC(=O)[C@H](CCCCN)NC(=O)[C@H](C)NC(=O)[C@H](C)NC(=O)[C@H](CCC(N)=O)NC(=O)CNC(=O)[C@H](CCC(=O)O)NC(=O)[C@H](CC(C)C)NC(=O)[C@H](Cc1ccc(O)cc1)NC(=O)[C@H](CO)NC(=O)[C@H](CO)NC(=O)[C@@H](NC(=O)[C@H](CC(=O)O)NC(=O)[C@H](CO)NC(=O)[C@@H](NC(=O)[C@H](Cc1ccccc1)NC(=O)[C@@H](NC(=O)CNC(=O)[C@H](CCC(=O)O)NC(=O)[C@H](C)NC(=O)[C@H](Cc1c[nH]cn1)NC(=O)[C@H](CCCCN)NC(=O)[C@@H](N)CCSC)[C@@H](C)O)[C@@H](C)O)C(C)C)C(=O)N[C@@H](C)C(=O)N[C@@H](Cc1c[nH]c2ccccc12)C(=O)N[C@@H](CC(C)C)C(=O)N[C@H](C(=O)N[C@@H](CCCCN)C(=O)NCC(=O)N[C@@H](CCCNC(=N)N)C(=O)O)C(C)C [MK-GLP1, MK HAEGTFTSDVSSYLEGQAAKEFIAWLVKGR] |  |
|  |  |  | CC[C@H](C)[C@H](NC(=O)[C@H](Cc1ccccc1)NC(=O)[C@H](CCC(=O)O)NC(=O)[C@@H]1CCC(=O)NCCCC[C@H](NC(=O)[C@H](CCC(=O)O)NC(=O)[C@H](CC(C)C)NC(=O)[C@H](Cc2ccc(O)cc2)NC(=O)[C@H](CO)NC(=O)[C@H](CO)NC(=O)[C@@H](NC(=O)[C@H](CC(=O)O)NC(=O)[C@H](CO)NC(=O)[C@@H](NC(=O)[C@H](Cc2ccccc2)NC(=O)[C@@H](NC(=O)CNC(=O)[C@H](CCC(=O)O)NC(=O)CNC(=O)[C@@H](N)Cc2c[nH]cn2)[C@@H](C)O)[C@@H](C)O)C(C)C)C(=O)N[C@@H](CCC(N)=O)C(=O)N[C@@H](C)C(=O)N[C@@H](C)C(=O)N1)C(=O)N[C@@H](C)C(=O)N[C@@H](Cc1c[nH]c2ccccc12)C(=O)N[C@@H](CC(C)C)C(=O)N[C@H](C(=O)N[C@@H](CCCCN)C(=O)NCC(=O)N[C@@H](CCCNC(=N)N)C(=O)NCC(N)=O)C(C)C [GLP1(7-37) cyclo[Lys16-Glu20], HGEGTFTSDVSSYLEKQAAEEFIAWLVKGRG AMIDE] (H-HGEGTFTSDVSSYLEKQAAEEFIAWLVKGRG-NH2; lactam 16-20) | EC50 (human GLP-1 receptor [2]): 0.016 nM |
|  | 1 nM | 4 nM | CC[C@H](C)[C@H](NC(=O)[C@H](Cc1ccccc1)NC(=O)[C@H](CCC(=O)O)NC(=O)[C@H](CCCCN)NC(=O)[C@H](C)NC(=O)[C@H](C)NC(=O)[C@H](CCC(N)=O)NC(=O)CNC(=O)[C@H](CCC(=O)O)NC(=O)[C@H](CC(C)C)NC(=O)[C@H](Cc1ccc(O)cc1)NC(=O)[C@H](CO)NC(=O)[C@H](CO)NC(=O)[C@@H](NC(=O)[C@H](CC(=O)O)NC(=O)[C@H](CO)NC(=O)[C@@H](NC(=O)[C@H](Cc1ccccc1)NC(=O)[C@@H](NC(=O)CNC(=O)[C@H](CCC(=O)O)NC(=O)[C@H](C)NC(=O)[C@H](Cc1c[nH]cn1)NC(=O)[C@H](CCC(=O)O)NC(=O)[C@@H](N)CCSC)[C@@H](C)O)[C@@H](C)O)C(C)C)C(=O)N[C@@H](C)C(=O)N[C@@H](Cc1c[nH]c2ccccc12)C(=O)N[C@@H](CC(C)C)C(=O)N[C@H](C(=O)N[C@@H](CCCCN)C(=O)NCC(=O)N[C@@H](CCCNC(=N)N)C(=O)O)C(C)C [ME-GLP1, ME HAEGTFTSDVSSYLEGQAAKEFIAWLVKGR] |  |
|  | 0.5 nM | 3 nM | CC[C@H](C)[C@H](NC(=O)[C@H](Cc1ccccc1)NC(=O)[C@H](CCC(=O)O)NC(=O)[C@H](CCCCN)NC(=O)[C@H](C)NC(=O)[C@H](C)NC(=O)[C@H](CCC(N)=O)NC(=O)CNC(=O)[C@H](CCC(=O)O)NC(=O)[C@H](CC(C)C)NC(=O)[C@H](Cc1ccc(O)cc1)NC(=O)[C@H](CO)NC(=O)[C@H](CO)NC(=O)[C@@H](NC(=O)[C@H](CC(=O)O)NC(=O)[C@H](CO)NC(=O)[C@@H](NC(=O)[C@H](Cc1ccccc1)NC(=O)[C@@H](NC(=O)CNC(=O)[C@H](CCC(=O)O)NC(=O)[C@H](C)NC(=O)[C@H](Cc1c[nH]cn1)NC(=O)[C@H](CCC(N)=O)NC(=O)[C@@H](N)CCSC)[C@@H](C)O)[C@@H](C)O)C(C)C)C(=O)N[C@@H](C)C(=O)N[C@@H](Cc1c[nH]c2ccccc12)C(=O)N[C@@H](CC(C)C)C(=O)N[C@H](C(=O)N[C@@H](CCCCN)C(=O)NCC(=O)N[C@@H](CCCNC(=N)N)C(=O)O)C(C)C [MQ-GLP1, MQ HAEGTFTSDVSSYLEGQAAKEFIAWLVKGR] |  |
|  | 0.8 nM | 5 nM | CC[C@H](C)[C@H](NC(=O)[C@H](Cc1ccccc1)NC(=O)[C@H](CCC(=O)O)NC(=O)[C@H](CCCCN)NC(=O)[C@H](C)NC(=O)[C@H](C)NC(=O)[C@H](CCC(N)=O)NC(=O)CNC(=O)[C@H](CCC(=O)O)NC(=O)[C@H](CC(C)C)NC(=O)[C@H](Cc1ccc(O)cc1)NC(=O)[C@H](CO)NC(=O)[C@H](CO)NC(=O)[C@@H](NC(=O)[C@H](CC(=O)O)NC(=O)[C@H](CO)NC(=O)[C@@H](NC(=O)[C@H](Cc1ccccc1)NC(=O)[C@@H](NC(=O)CNC(=O)[C@H](CCC(=O)O)NC(=O)[C@H](C)NC(=O)[C@H](Cc1c[nH]cn1)NC(=O)[C@H](Cc1c[nH]c2ccccc12)NC(=O)[C@@H](N)CCSC)[C@@H](C)O)[C@@H](C)O)C(C)C)C(=O)N[C@@H](C)C(=O)N[C@@H](Cc1c[nH]c2ccccc12)C(=O)N[C@@H](CC(C)C)C(=O)N[C@H](C(=O)N[C@@H](CCCCN)C(=O)NCC(=O)N[C@@H](CCCNC(=N)N)C(=O)O)C(C)C [MW-GLP1, MW HAEGTFTSDVSSYLEGQAAKEFIAWLVKGR] |  |
|  |  |  | CC[C@H](C)[C@H](NC(=O)[C@H](Cc1ccccc1)NC(=O)[C@H](CCC(=O)O)NC(=O)[C@H](CCCCN)NC(=O)[C@H](C)NC(=O)[C@H](C)NC(=O)[C@H](CCC(N)=O)NC(=O)CNC(=O)[C@H](CCC(=O)O)NC(=O)[C@H](CC(C)C)NC(=O)[C@H](Cc1ccc(O)cc1)NC(=O)[C@H](CO)NC(=O)[C@H](CO)NC(=O)[C@@H](NC(=O)[C@H](CC(=O)O)NC(=O)[C@H](CO)NC(=O)[C@@H](NC(=O)[C@H](Cc1ccccc1)NC(=O)[C@@H](NC(=O)CNC(=O)[C@H](CCC(=O)O)NC(=O)[C@H](C)NC(=O)[C@H](Cc1c[nH]cn1)NC(=O)[C@H](Cc1c[nH]cn1)NC(=O)[C@@H](N)CCSC)[C@@H](C)O)[C@@H](C)O)C(C)C)C(=O)N[C@@H](C)C(=O)N[C@@H](Cc1c[nH]c2ccccc12)C(=O)N[C@@H](CC(C)C)C(=O)N[C@H](C(=O)N[C@@H](CCCCN)C(=O)NCC(=O)N[C@@H](CCCNC(=N)N)C(=O)O)C(C)C [MH-GLP1, MH HAEGTFTSDVSSYLEGQAAKEFIAWLVKGR] | IC50 (human GLP-1 receptor [1]): 350 nM |

| Compound | IC50 (human GLP-1 receptor [1]; [3]) | EC50 (human GLP-1 receptor [2]; [4]) | EC50 (mouse GLP-1 receptor) | also measured |
| --- | --- | --- | --- | --- |
| cgGLP-13: SEQ ID NO: 8 + 20k PEG monomer (HGEGTFTSDVSSYLEGC(PEG 20 kDa)AAKEFIAWLKNGGPSSGAPPPS) | > 1000 nM | 1 nM |  |  |
